# Results taken from publication PMC10584170, “Machine learning-based phenotypic imaging to characterise the targetable biology of Plasmodium falciparum male gametocytes for the development of transmission-blocking antimalarials” (PLOS Pathogens, 2023).
# What was measured:
# [1] = tested on: P. falciparum female gametocytes; test: P. falciparum Dual Gamete Formation Assay (PfDGFA), female readout (Pfs25-positive female gametes); type: cell-based, Plasmodium falciparum NF54; details: for % inhibition female (individual replicates) R1: replicate R1; for % inhibition female (individual replicates) R3: replicate R3; for % inhibition female (individual replicates) R4: replicate R4; for Average inhibition female (%): average of replicates
# In short: (§1)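 Mature NF54 gametocytes (day 14) were incubated with compound for 24 h at 37°C under 1% O2/3% CO2, then triggered with xanthurenic acid ookinete medium plus Cy3-anti-Pfs25. Exflagellation was imaged by brightfield; after a further 24 h at 28°C, Pfs25-positive female gametes were imaged by fluorescence and counted by automated image analysis.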
# [2] = tested on: P. falciparum male gametocytes; test: P. falciparum Dual Gamete Formation Assay (PfDGFA), male readout (exflagellation); type: cell-based, Plasmodium falciparum NF54; details: for % inhibition male (individual replicates) R1: replicate R1; for % inhibition male (individual replicates) R3: replicate R3; for % inhibition male (individual replicates) R4: replicate R4; for Average inhibition male (%): average of replicates; for Activity: hit = >50% inhibition in male or female readout in at least 3 replicates, 0 = no class assigned
# In short: as §1
# [3] = PfDGFA at 2µM, 24h preincubation with gametocytes prior to induction of gametogenesis
# [4] = PfDGFA at 2µM, 24h preincubation
# [5] = 2µM, 24h preincubation with gametocytes prior to induction of gametogenesis
# [6] = 2µM, 24h preincubation, number of replicates with >50% inhibition in the female readout
# [7] = 2µM, 24h preincubation, number of replicates with >50% inhibition in the male readout
# [8] = 2µM, 24h preincubation, hits selected on >50% inhibition in the female readout across replicates
# [9] = 2µM, 24h preincubation, hits selected on >50% inhibition in the male readout across replicates
# [10] = 2µM, 24h preincubation with gametocytes
compound,measurement,setting,value
O=C(COc1ccccc1)N(Cc1ccc(-c2ccc(CNC3Cc4ccccc4C3)cc2)cc1)C1CCNCC1.O=C(O)C(F)(F)F [TCMDC-141450],% inhibition female (individual replicates) R1,[1]; [3],8.2%
same,% inhibition female (individual replicates) R3,[1]; [3],-25.4%
same,% inhibition female (individual replicates) R4,[1]; [3],-2.6%
same,Average inhibition female (%),[1]; [4],-0.0825%
same,% inhibition male (individual replicates) R1,[2]; [3],15.3%
same,% inhibition male (individual replicates) R3,[2]; [3],-5.5%
same,% inhibition male (individual replicates) R4,[2]; [3],33.6%
same,Average inhibition male (%),[2]; [4],16.7%
Cc1cc2c3c(N)nc(N)nc3ccc2n1C [TCMDC-137957],Average inhibition female (%),[1]; [5],31.9%
same,% inhibition female (individual replicates) R1,[1]; [5],39.3%
same,% inhibition female (individual replicates) R3,[1]; [5],32.6%
same,% inhibition female (individual replicates) R4,[1]; [5],34.2%
same,HitlevelF,[1]; [6],0
same,Average inhibition male (%),[2]; [5],2.4%
same,% inhibition male (individual replicates) R1,[2]; [5],-0.85%
same,% inhibition male (individual replicates) R3,[2]; [5],-3.6%
same,% inhibition male (individual replicates) R4,[2]; [5],3.4%
same,HitlevelM,[2]; [7],0
NCc1cccc(-c2ccccc2CNC2CCN(Cc3ccccc3)CC2)c1.O=C(O)C(F)(F)F [TCMDC-140467],Average inhibition female (%),[1]; [5],24.8%
same,% inhibition female (individual replicates) R1,[1]; [5],22.3%
same,% inhibition female (individual replicates) R3,[1]; [5],3.0%
same,% inhibition female (individual replicates) R4,[1]; [5],28.3%
same,HitlevelF,[1]; [6],0
same,Average inhibition male (%),[2]; [5],3.4%
same,% inhibition male (individual replicates) R1,[2]; [5],-0.12%
same,% inhibition male (individual replicates) R3,[2]; [5],-13.3%
same,% inhibition male (individual replicates) R4,[2]; [5],18.9%
same,HitlevelM,[2]; [7],0
O=C(/C=C/c1c(Cl)cccc1Cl)NC1CCC(CN2CCC(c3c[nH]c4ccncc34)CC2)CC1 (stereo not drawn) [TCMDC-140220],Average inhibition female (%),[1]; [5],10.7%
same,% inhibition female (individual replicates) R1,[1]; [5],11.8%
same,% inhibition female (individual replicates) R3,[1]; [5],11.4%
same,% inhibition female (individual replicates) R4,[1]; [5],18.8%
same,HitlevelF,[1]; [8],0
same,Average inhibition male (%),[2]; [5],43.5%
same,% inhibition male (individual replicates) R1,[2]; [5],44.6%
same,% inhibition male (individual replicates) R3,[2]; [5],17.7%
same,% inhibition male (individual replicates) R4,[2]; [5],42.9%
same,HitlevelM,[2]; [9],1
same,Activity,[2]; [4],0
COc1ccccc1CNc1ccnc(N2CC(Oc3ccc(F)cc3)C2)n1 [TCMDC-135118],% inhibition female (individual replicates) R1,[1]; [3],24.5%
same,% inhibition female (individual replicates) R3,[1]; [3],-33.1%
same,% inhibition female (individual replicates) R4,[1]; [3],4.4%
same,Average inhibition female (%),[1]; [4],3.5%
same,% inhibition male (individual replicates) R1,[2]; [3],9.0%
same,% inhibition male (individual replicates) R3,[2]; [3],-43.0%
same,% inhibition male (individual replicates) R4,[2]; [3],42.2%
same,Average inhibition male (%),[2]; [4],10.3%
Nc1nc(N)c2cc(CNc3ccc(Cl)c(Cl)c3)ccc2n1 [TCMDC-141974],% inhibition female (individual replicates) R1,[1]; [3],1.5%
same,% inhibition female (individual replicates) R3,[1]; [3],-5.9%
same,% inhibition female (individual replicates) R4,[1]; [3],0.5%
same,Average inhibition female (%),[1]; [4],-1.4%
same,% inhibition male (individual replicates) R1,[2]; [3],19.3%
same,% inhibition male (individual replicates) R3,[2]; [3],26.8%
same,% inhibition male (individual replicates) R4,[2]; [3],9.5%
same,Average inhibition male (%),[2]; [4],20.3%
COc1cc(C(=O)NC2CCN(Cc3ccccc3)CC2)ccc1-c1nc2cc(Cl)c(Cl)cc2[nH]1 [TCMDC-140078],Average inhibition female (%),[1]; [5],6.4%
same,% inhibition female (individual replicates) R1,[1]; [5],17.0%
same,% inhibition female (individual replicates) R3,[1]; [5],-8.0%
same,% inhibition female (individual replicates) R4,[1]; [5],18.5%
same,HitlevelF,[1]; [8],0
same,Average inhibition male (%),[2]; [5],4.4%
same,% inhibition male (individual replicates) R1,[2]; [5],13.3%
same,% inhibition male (individual replicates) R3,[2]; [5],2.8%
same,% inhibition male (individual replicates) R4,[2]; [5],2.9%
same,HitlevelM,[2]; [9],0
same,Activity,[2]; [4],0
CNC(=O)C(NC(=O)c1ccccc1C(=O)OC)c1ccccc1 (stereo not drawn) [TCMDC-137226],% inhibition female (individual replicates) R1,[1]; [3],18.3%
same,% inhibition female (individual replicates) R3,[1]; [3],-7.8%
same,% inhibition female (individual replicates) R4,[1]; [3],-6.5%
same,Average inhibition female (%),[1]; [4],2.2%
same,% inhibition male (individual replicates) R1,[2]; [3],12.9%
same,% inhibition male (individual replicates) R3,[2]; [3],-28.2%
same,% inhibition male (individual replicates) R4,[2]; [3],-18.5%
same,Average inhibition male (%),[2]; [4],-3.7%
CCN(C)C(=O)n1ncc2c3c(N)nc(N)nc3ccc21 [TCMDC-137828],% inhibition female (individual replicates) R1,[1]; [3],0.36%
same,% inhibition female (individual replicates) R3,[1]; [3],-2.4%
same,% inhibition female (individual replicates) R4,[1]; [3],3.1%
same,Average inhibition female (%),[1]; [4],-0.8%
same,% inhibition male (individual replicates) R1,[2]; [3],33.9%
same,% inhibition male (individual replicates) R3,[2]; [3],38.2%
same,% inhibition male (individual replicates) R4,[2]; [3],21.2%
same,Average inhibition male (%),[2]; [4],34.9%
CNCCNCc1ccc(-c2cccc(-c3nc4cc(F)ccc4[nH]3)c2)cc1.O=C(O)C(F)(F)F [TCMDC-132836],% inhibition female (individual replicates) R1,[1]; [3],-0.65%
same,% inhibition female (individual replicates) R3,[1]; [3],8.4%
same,% inhibition female (individual replicates) R4,[1]; [3],2.6%
same,Average inhibition female (%),[1]; [4],2.2%
same,% inhibition male (individual replicates) R1,[2]; [3],-5.6%
same,% inhibition male (individual replicates) R4,[2]; [3],-19.2%
same,Average inhibition male (%),[2]; [4],-13.9%
CC(=O)Nc1ccc(Nc2c3ccccc3nc3ccccc23)cc1 [TCMDC-124356],Average inhibition female (%),[1]; [5],14.4%
same,% inhibition female (individual replicates) R1,[1]; [5],47.3%
same,% inhibition female (individual replicates) R3,[1]; [5],8.8%
same,% inhibition female (individual replicates) R4,[1]; [5],12.0%
same,HitlevelF,[1]; [8],0
same,Average inhibition male (%),[2]; [5],30.9%
same,% inhibition male (individual replicates) R1,[2]; [5],50.9%
same,% inhibition male (individual replicates) R4,[2]; [5],-15.9%
same,HitlevelM,[2]; [9],2
same,Activity,[2]; [4],0
CCCc1cc2c3c(N)nc(N)nc3ccc2n1CC [TCMDC-137946],Average inhibition female (%),[1]; [10],82.6%
same,% inhibition female (individual replicates) R1,[1]; [10],82.8%
same,% inhibition female (individual replicates) R3,[1]; [10],88.8%
same,% inhibition female (individual replicates) R4,[1]; [10],84.8%
same,Average inhibition male (%),[2]; [10],95.8%
same,% inhibition male (individual replicates) R1,[2]; [10],97.3%
same,% inhibition male (individual replicates) R3,[2]; [10],96.2%
same,% inhibition male (individual replicates) R4,[2]; [10],104.1%
CN1CCN(Cc2cccc(-c3ccc4c(Nc5ccc(Oc6ccccc6)cc5)ccnc4c3)c2)CC1 [TCMDC-138476],Average inhibition female (%),[1]; [5],18.5%
same,% inhibition female (individual replicates) R1,[1]; [5],35.6%
same,% inhibition female (individual replicates) R3,[1]; [5],-5.5%
same,% inhibition female (individual replicates) R4,[1]; [5],24.1%
same,HitlevelF,[1]; [6],0
same,Average inhibition male (%),[2]; [5],-8.7%
same,% inhibition male (individual replicates) R1,[2]; [5],-12.6%
same,% inhibition male (individual replicates) R3,[2]; [5],-7.4%
same,% inhibition male (individual replicates) R4,[2]; [5],-11.7%
same,HitlevelM,[2]; [7],0
COc1ccccc1N1CCN(CCCCNC(=O)c2ccc(NC(=O)c3ccc(OC(F)(F)F)cc3)cc2)CC1.Cl [TCMDC-137780],Average inhibition female (%),[1]; [5],5.4%
same,% inhibition female (individual replicates) R1,[1]; [5],10.5%
same,% inhibition female (individual replicates) R3,[1]; [5],-10.0%
same,% inhibition female (individual replicates) R4,[1]; [5],19.1%
same,HitlevelF,[1]; [8],0
same,Average inhibition male (%),[2]; [5],-3.4%
same,% inhibition male (individual replicates) R1,[2]; [5],-7.9%
same,% inhibition male (individual replicates) R3,[2]; [5],-14.4%
same,% inhibition male (individual replicates) R4,[2]; [5],10.6%
same,HitlevelM,[2]; [9],0
same,Activity,[2]; [4],0
CC(C)N1CCN(C(CN2CCN(CCCOc3ccccc3-c3ccccc3)CC2)c2ccc(F)cc2)CC1.Cl (stereo not drawn) [TCMDC-135499],Average inhibition female (%),[1]; [5],28.0%
same,% inhibition female (individual replicates) R1,[1]; [5],23.1%
same,% inhibition female (individual replicates) R3,[1]; [5],16.4%
same,% inhibition female (individual replicates) R4,[1]; [5],32.9%
same,HitlevelF,[1]; [6],0
same,Average inhibition male (%),[2]; [5],13.5%
same,% inhibition male (individual replicates) R1,[2]; [5],15.7%
same,% inhibition male (individual replicates) R3,[2]; [5],14.1%
same,% inhibition male (individual replicates) R4,[2]; [5],9.5%
same,HitlevelM,[2]; [7],0
